Assay results as given in PubChem BioAssay AID192 (DTP/NCI, 2004).
Values joined by “and” are separate entries in the source; they are usually repeats but may differ in a detail not shown here. Equal values may be shown once. Toxic doses and inconclusive results are not listed. Numbered stars: 1 amine (or outer) side, 2 acyl side, 3 side chain; on linkers, the order of the positions; unused ones are H or OH. Bridge positions count the residues as written; N and C are the ends. Square brackets hold non-standard residues; d marks the D form. Peptide text beside a SMILES is read from it. I, II: the chains in the order shown. Actinocin(1to9) = Cc1c2oc3c(C)ccc(C(=O)[*:2])c3nc-2c(C(=O)[*:1])c(N)c1=O; X1 = O=C1CC(C(=O)[*:2])N([*:1])C1; NMeV = CN[CH](C(=O)O)C(C)C; Sar = CNCC(=O)O

Test system: BDF1 mice, B16 melanoma ip, median survival T/C
Experiment: NCI In Vivo Anticancer Drug Screen. Data for tumor model B16 Melanoma (intraperitoneal) in B6D2F1 (BDF1) mice
Conditions: endpoint: median survival time, higher = longer survival
Summary of the method: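 Vehicle-treated animals serve as the reference (C); treated animals (T) are scored for survival or tumor size after tumor transplantation.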

[1] = dose: 25.0 mg/kg/injection, schedule: Q01DX009 (ip), vehicle: Klucel (hydroxypropylcellulose) (HPC)
[2] = dose: 50.0 mg/kg/injection, schedule: Q01DX009 (ip), vehicle: Klucel (hydroxypropylcellulose) (HPC)
[3] = dose: 100.0 mg/kg/injection, schedule: Q01DX009 (ip), vehicle: Klucel (hydroxypropylcellulose) (HPC)
[4] = dose: 200.0 mg/kg/injection, schedule: Q01DX009 (ip), vehicle: Klucel (hydroxypropylcellulose) (HPC)
[5] = dose: 50.0 mg/kg/injection, schedule: Q01DX009 (ip), vehicle: saline with Tween-80
[6] = dose: 100.0 mg/kg/injection, schedule: Q01DX009 (ip), vehicle: saline with Tween-80
[7] = dose: 200.0 mg/kg/injection, schedule: Q01DX009 (ip), vehicle: saline with Tween-80
[8] = dose: 12.5 mg/kg/injection, schedule: Q01DX009 (ip), vehicle: Klucel (hydroxypropylcellulose) (HPC)
[9] = dose: 400.0 mg/kg/injection, schedule: Q01DX009 (ip), vehicle: saline with Tween-80
[10] = dose: 25.0 mg/kg/injection, schedule: Q01DX009 (ip), vehicle: saline with Tween-80
[11] = dose: 100.0 mg/kg/injection, schedule: Q01DX009 (ip), vehicle: saline
[12] = dose: 200.0 mg/kg/injection, schedule: Q01DX009 (ip), vehicle: saline
[13] = dose: 400.0 mg/kg/injection, schedule: Q01DX009 (ip), vehicle: saline
[14] = dose: 100.0 mg/kg/injection, schedule: Q04DX003 (ip), vehicle: saline with Tween-80
[15] = dose: 400.0 mg/kg/injection, schedule: Q01DX009 (ip), vehicle: Klucel (hydroxypropylcellulose) (HPC)

`CC1=C/C(O)CC(=O)Cc2nc(co2)C(=O)N2CCC=C2C(=O)OC(C(C)C)C(C)/C=C\C(=O)NC/C=C\1` (stereo not drawn) was tested, and the T/C [1] was 91 % of control, the T/C [2] was 102 % of control and the T/C [3] was 118 % of control. The T/C [4] was 123 % of control, the T/C (dose: 0.5 micrograms/kg/injection, schedule: Q01DX009 (ip), vehicle: saline) was 103 % of control and the T/C (dose: 1.0 micrograms/kg/injection, schedule: Q01DX009 (ip), vehicle: saline) was 102 % of control. The T/C (dose: 2.0 micrograms/kg/injection, schedule: Q01DX009 (ip), vehicle: saline) was 107 % of control.

`COc1ccc([Se][Se]c2ccc(OC)cc2NC(C)=O)c(NC(C)=O)c1` was tested, and the T/C [5] was 102 % of control, the T/C [6] was 92 % of control and the T/C [7] was 100 % of control.

For `NC(=S)c1cn(C2OC(CO)C(O)C2O)c2ncnc(N)c12` (stereo not drawn), the T/C (dose: 2.5 mg/kg/injection, schedule: Q01DX009 (ip), vehicle: saline) was 89 % of control and the T/C (dose: 5.0 mg/kg/injection, schedule: Q01DX009 (ip), vehicle: saline) was 91 % of control.

With `CCCCOP(=O)(CCl)OCCCC` the T/C [2] was 97 % of control and the T/C [3] was 86 % of control.

For `Oc1nc(/N=C2/N=c3ccc(Cl)cc3=N2)[nH]c1O`, the T/C [8] was 86 % of control, the T/C [1] was 93 % of control and the T/C [2] was 86 % of control.

`CC(=O)OCC1OC(n2ncc(=O)[nH]c2=O)C(OC(C)=O)C1OC(C)=O` (stereo not drawn) was tested, and the T/C [5] was 106 % of control, the T/C [6] was 91 % of control and the T/C [7] was 95 % of control. The T/C [9] was 102 % of control and the T/C (dose: 800.0 mg/kg/injection, schedule: Q01DX009 (ip), vehicle: saline with Tween-80) was 100 % of control.

In the case of `O=C(Nc1ccc(C2=NCCCN2)cc1)c1ccc(C(=O)Nc2ccc(C3=NCCCN3)cc2)nc1`, the T/C (dose: 5.0 mg/kg/injection, schedule: Q01DX009 (ip), vehicle: saline with Tween-80) is reported as 87 % of control and the T/C (dose: 10.0 mg/kg/injection, schedule: Q01DX009 (ip), vehicle: saline with Tween-80) is reported as 95 % of control.

`C/C=C/C=C1/OC(C)=C(C(C)=O)C1=O` was tested, and the T/C (dose: 12.5 mg/kg/injection, schedule: Q01DX009 (ip), vehicle: saline with Tween-80) was 102 % of control and 111 % of control, the T/C [10] was 102 % of control and the T/C [5] was 102 % of control and 110 % of control. The T/C [6] was 96 % of control and 109 % of control, the T/C [7] was 104 % of control and the T/C [9] was 98 % of control.

With `CCOC(=O)CCN1CC(C)OC(C)C1` (stereo not drawn) the T/C [11] was 118 % of control, the T/C [12] was 115 % of control and the T/C [13] was 118 % of control.

For `CC(=O)NC1CCCCC1`, the T/C (dose: 33.0 mg/kg/injection, schedule: Q04DX003 (ip), vehicle: saline with Tween-80) was 100 % of control, the T/C (dose: 75.0 mg/kg/injection, schedule: Q04DX003 (ip), vehicle: saline with Tween-80) was 93 % of control and the T/C [14] was 150 % of control.

`C/C(=C\c1ccccc1)C(=O)c1ccc(-c2ccccc2)cc1` was tested, and the T/C (dose: 100.0 mg/kg/injection, schedule: Q04DX003 (ip), vehicle: Klucel (hydroxypropylcellulose) (HPC)) was 103 % of control, the T/C (dose: 200.0 mg/kg/injection, schedule: Q04DX003 (ip), vehicle: Klucel (hydroxypropylcellulose) (HPC)) was 95 % of control and the T/C (dose: 400.0 mg/kg/injection, schedule: Q04DX003 (ip), vehicle: Klucel (hydroxypropylcellulose) (HPC)) was 106 % of control.

`CCOC(=O)C(Cc1ccc(Cl)cc1)(Cc1ccc(Cl)cc1)C(=O)OCC` was tested, and the T/C [3] was 106 % of control, the T/C [4] was 100 % of control and the T/C [15] was 93 % of control.

`CNC(=O)Nc1nccs1` was tested, and the T/C [10] was 97 % of control, the T/C [5] was 95 % of control and the T/C [6] was 106 % of control. For the same molecule, the T/C [7] was 91 % of control.

In the case of `O=C(Nc1nccs1)C(F)(F)F`, the T/C (dose: 50.0 mg/kg/injection, schedule: Q01DX009 (ip), vehicle: saline) is reported as 98 % of control, the T/C [11] is reported as 106 % of control and the T/C [12] is reported as 103 % of control. For the same molecule, the T/C [13] was 97 % of control.

`COC(=O)C[C@](O)(CCC(C)(C)O)C(=O)O[C@@H]1C(OC)=C[C@]23CCCN2CCc2cc4c(cc2[C@H]13)OCO4` was tested, and the T/C (dose: 0.25 mg/kg/injection, schedule: Q01DX009 (ip), vehicle: saline) was 152 % of control, the T/C (dose: 1.0 mg/kg/injection, schedule: Q01DX009 (ip), vehicle: saline) was 150 % of control and the T/C (dose: 2.0 mg/kg/injection, schedule: Q01DX009 (ip), vehicle: saline) was 102 % of control. The T/C (dose: 32.0 micrograms/kg/injection, schedule: Q01DX009 (ip), vehicle: saline) was 104 % of control, the T/C (dose: 63.0 micrograms/kg/injection, schedule: Q01DX009 (ip), vehicle: saline) was 109 % of control and the T/C (dose: 125.0 micrograms/kg/injection, schedule: Q01DX009 (ip), vehicle: saline) was 113 % of control.

For `Cn1c(=O)c2[nH]c(Cc3cccc(O)c3)nc2n(C)c1=O`, the T/C (dose: 3.12 mg/kg/injection, schedule: Q01DX009 (ip), vehicle: suspension in saline) was 94 % of control, the T/C (dose: 6.25 mg/kg/injection, schedule: Q01DX009 (ip), vehicle: suspension in saline) was 96 % of control and the T/C (dose: 100.0 mg/kg/injection, schedule: Q01DX009 (ip), vehicle: suspension in saline) was 94 % of control.

For `CCN1C(=O)NC(=O)/C(=C/N(CCO)CCO)C1=O`, the T/C [3] was 111 % of control, the T/C [4] was 107 % of control and the T/C [15] was 96 % of control.

`CC(C)(C)N1C(=O)N(C(C)(C)C)C1=O` was tested, and the T/C (dose: 75.0 mg/kg/injection, schedule: Q01DX009 (ip), vehicle: other) was 102 % of control, the T/C (dose: 150.0 mg/kg/injection, schedule: Q01DX009 (ip), vehicle: other) was 105 % of control and the T/C (dose: 300.0 mg/kg/injection, schedule: Q01DX009 (ip), vehicle: other) was 102 % of control.

For `C=CC(=O)NCNC(=O)CCBr`, the T/C [1] was 115 % of control, the T/C [2] was 121 % of control and the T/C [3] was 123 % of control.

In the case of `COc1ccc(OCC(O)CN2CCN(c3ccc(Cl)cc3)CC2)cc1` (stereo not drawn), the T/C (dose: 6.25 mg/kg/injection, schedule: Q01DX009 (ip), vehicle: Klucel (hydroxypropylcellulose) (HPC)) is reported as 97 % of control, the T/C [8] is reported as 105 % of control and the T/C [1] is reported as 104 % of control. The T/C [2] was 111 % of control, the T/C [3] was 108 % of control and the T/C [4] was 105 % of control.

In the case of `C#CCSC(=S)NNc1ccccc1`, the T/C [6] is reported as 106 % of control and the T/C [7] is reported as 112 % of control.

In the case of `Cc1c[n+]2ccccc2n1C`, the T/C [10] is reported as 99 % of control and 100 % of control, the T/C [5] is reported as 94 % of control and 96 % of control and the T/C [6] is reported as 93 % of control and 94 % of control.

In the case of `Cc1c2oc3c(C)ccc(C(=O)NC4C(=O)NC(C(C)C)C(=O)N5CCCC5C(=O)N(C)CC(=O)N(C)C(C(C)C)C(=O)OC4C)c3nc-2c(C(=O)NC2C(=O)NC(C(C)C)C(=O)N3CC(=O)CC3C(=O)N(C)CC(=O)N(C)C(C(C)C)C(=O)OC2C)c(N)c1=O` (stereo not drawn) (I: TV[X1][Sar][NMeV] / II: TVP[Sar][NMeV]; ester I:1-I:C, II:1-II:C; linker I:N-II:N via Actinocin(1to9); configuration not given here), the T/C (dose: 6.2 micrograms/kg/injection, schedule: Q01DX009 (ip), vehicle: water) is reported as 123 % of control, the T/C (dose: 9.4 micrograms/kg/injection, schedule: Q04DX003 (ip), vehicle: water) is reported as 106 % of control and the T/C (dose: 18.7 micrograms/kg/injection, schedule: Q04DX003 (ip), vehicle: water) is reported as 123 % of control. The T/C (dose: 25.0 micrograms/kg/injection, schedule: Q01DX001 (ip), vehicle: water) was 123 % of control, the T/C (dose: 50.0 micrograms/kg/injection, schedule: Q01DX001 (ip), vehicle: water) was 116 % of control and the T/C (dose: 100.0 micrograms/kg/injection, schedule: Q01DX001 (ip), vehicle: water) was 106 % of control.

In the case of `C[C@H]1CN1C1=CC(=O)C(N2C[C@@H]2C)=CC1=O`, the T/C (dose: 0.5 mg/kg/injection, schedule: Q01DX009 (ip), vehicle: saline with Tween-80) is reported as 102 % of control, the T/C (dose: 1.0 mg/kg/injection, schedule: Q01DX009 (ip), vehicle: saline with Tween-80) is reported as 106 % of control and the T/C (dose: 2.0 mg/kg/injection, schedule: Q01DX009 (ip), vehicle: Klucel (hydroxypropylcellulose) (HPC)) is reported as 123 % of control. For the same molecule, the T/C (dose: 4.0 mg/kg/injection, schedule: Q01DX009 (ip), vehicle: Klucel (hydroxypropylcellulose) (HPC)) was 115 % of control.

With `CN(C)C(=S)Nc1ccccc1` the T/C [5] was 95 % of control, the T/C [6] was 95 % of control and the T/C [7] was 90 % of control.

`COC(=O)C1Oc2ccc(Cl)cc2Cc2cc(Cl)ccc2O1` was tested, and the T/C (dose: 2.5 mg/kg/injection, schedule: Q01DX009 (ip), vehicle: Klucel (hydroxypropylcellulose) (HPC)) was 91 % of control, the T/C (dose: 5.0 mg/kg/injection, schedule: Q01DX009 (ip), vehicle: Klucel (hydroxypropylcellulose) (HPC)) was 99 % of control and the T/C (dose: 10.0 mg/kg/injection, schedule: Q01DX009 (ip), vehicle: Klucel (hydroxypropylcellulose) (HPC)) was 93 % of control and 99 % of control.

For `CC#CCOCC(CCl)OC(=O)Nc1ccccc1` (stereo not drawn), the T/C [14] was 93 % of control, the T/C (dose: 200.0 mg/kg/injection, schedule: Q04DX003 (ip), vehicle: saline with Tween-80) was 97 % of control and the T/C (dose: 400.0 mg/kg/injection, schedule: Q04DX003 (ip), vehicle: saline with Tween-80) was 90 % of control.
